Laboratory results reported in US11986471B2, “Compounds and methods of use” (Tango Therapeutics, Inc., priority 2018, dated 2024).

Key:
HAP1 MTAP-intact = assay: SDMA in-cell western assay, HAP1 MTAP-intact cell line; format: cell-based; conditions: Homo sapiens
Procedure, shortened: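 Cells from two matched HAP1 lines, MTAP-null and MTAP-expressing at endogenous levels, are treated with compound. SDMA is then quantified by in-cell western and an IC50 is calculated for each line.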

PRMT5 [1] = target: T1, PRMT5 (Homo sapiens, UniProt O14744); assay: PRMT5 IC50 assay in the presence of SAM as cofactor; format: biochemical
T1 construct: purchased Viva (custom protein)
T1 sequence (O14744 whole entry): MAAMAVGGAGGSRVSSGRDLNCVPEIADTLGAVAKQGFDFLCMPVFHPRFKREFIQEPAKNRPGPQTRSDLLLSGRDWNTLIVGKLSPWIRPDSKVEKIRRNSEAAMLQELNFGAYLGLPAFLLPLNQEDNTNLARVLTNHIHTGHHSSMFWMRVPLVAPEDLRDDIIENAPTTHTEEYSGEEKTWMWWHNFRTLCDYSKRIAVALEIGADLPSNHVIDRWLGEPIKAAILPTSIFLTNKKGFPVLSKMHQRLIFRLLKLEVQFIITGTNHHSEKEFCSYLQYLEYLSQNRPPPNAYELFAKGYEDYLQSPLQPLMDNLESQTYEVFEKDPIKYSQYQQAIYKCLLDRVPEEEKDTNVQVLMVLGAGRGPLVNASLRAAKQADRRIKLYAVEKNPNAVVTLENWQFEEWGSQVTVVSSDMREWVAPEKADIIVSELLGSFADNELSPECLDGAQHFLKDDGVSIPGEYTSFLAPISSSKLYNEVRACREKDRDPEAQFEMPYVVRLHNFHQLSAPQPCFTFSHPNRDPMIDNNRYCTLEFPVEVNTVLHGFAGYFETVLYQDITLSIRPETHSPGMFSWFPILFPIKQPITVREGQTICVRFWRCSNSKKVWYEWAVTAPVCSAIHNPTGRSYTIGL
T1 sequence (Q9BQA1 whole entry partner): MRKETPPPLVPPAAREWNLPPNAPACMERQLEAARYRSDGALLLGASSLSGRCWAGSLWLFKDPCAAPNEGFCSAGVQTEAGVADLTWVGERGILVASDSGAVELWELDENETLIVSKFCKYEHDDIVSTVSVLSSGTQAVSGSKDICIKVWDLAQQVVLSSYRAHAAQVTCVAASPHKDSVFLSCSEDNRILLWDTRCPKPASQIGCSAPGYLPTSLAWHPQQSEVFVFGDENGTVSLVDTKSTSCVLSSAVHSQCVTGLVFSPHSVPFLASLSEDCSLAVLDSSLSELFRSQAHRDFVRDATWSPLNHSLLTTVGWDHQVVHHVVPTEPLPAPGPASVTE
Procedure, shortened: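 Potency against PRMT5 is compared across cofactor states, where IC50 equals Ki×1.5 with SAM present and Ki×13.5 with MTA present.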

PRMT5 [2] = target: T1, PRMT5; assay: PRMT5 IC50 assay with no cofactor; format: biochemical
Procedure, shortened: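 For the SAM-containing format, dividing IC50 by 1.5 yields Ki; for the MTA-containing format the divisor is 13.5. A third format without cofactor gives IC50 alone.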

HAP1 MTAP-deleted = assay: SDMA in-cell western assay, HAP1 MTAP-deleted cell line; format: cell-based; conditions: for IC50: Homo sapiens, HAP1 MTAP-deleted cell line; for MTAP Intact/Deleted Ratio: IC50 ratio HAP1 MTAP-intact / HAP1 MTAP-deleted
Procedure, shortened: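 MTAP-null HAP1 cells, the deleted member of an isogenic pair with endogenously MTAP-expressing HAP1, are treated with compound. SDMA is then quantified by in-cell western and an IC50 is calculated.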

PRMT5 [3] = target: T1, PRMT5; assay: PRMT5 IC50 assay in the presence of MTA as cofactor; format: biochemical; conditions: for IC50: PRMT5, MTA as cofactor
Procedure, shortened: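 IC50 against PRMT5 determined with SAM as cofactor, with no cofactor, and with MTA as cofactor. Ki derived as IC50/1.5 for the SAM assay and IC50/13.5 for the MTA assay; SAM Ki to MTA Ki ratio also reported.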

[4] = ratio between the Ki in the presence of SAM and the Ki in the presence of MTA
[5] = ratio between Ki in the presence of SAM and Ki in the presence of MTA

SMILES | IC50 (HAP1 MTAP-intact) | IC50 (PRMT5 [1]) | IC50 (PRMT5 [2]) | IC50 (HAP1 MTAP-deleted) | IC50 (PRMT5 [3]) | IC50 (PRMT5 [2]; read-out: No Co-factor IC50) | MTAP Intact/Deleted Ratio (HAP1 MTAP-deleted) | SAM/MTA Ratio (PRMT5 [3]; [4]) | SAM/MTA Ratio (PRMT5 [3]; [5])
O=C(NC[C@H](O)CN1CCc2c(Cl)c(OCc3cnco3)cc(F)c2C1)c1ccnc(NC2CCC2)c1 [Compound 279, N-[(2S)-3-[5-chloro-8-fluoro-6-(oxazol-5-ylmethoxy)-3,4-dihydro-1H-isoquinolin-2-yl]-2-hydroxy-propyl]-2-(cyclobutylamino)pyridine-4-carboxamide] | ≥ 10 µM | 0.05 to 0.5 µM |  | 1 to 10 µM | 0.05 to 0.5 µM | ≥ 5 µM | C* (an IC50 ratio of less than 3 fold between the IC50 in the HAP1 MTAP-intact cell line and the HAP1 MTAP-deleted cell line) |  | A (a Ki ratio greater than or equal to 10 fold between the Ki in the presence of SAM and the Ki in the presence of MTA)
O=C(NC[C@H](O)CN1CCc2c(ccc(OCc3cnco3)c2Cl)C1)c1cc(NC2CCCC2)ncn1 [Compound 336, (S)—N-(3-(5-chloro-6-(oxazol-5-ylmethoxy)-3,4-dihydroisoquinolin-2(1H)-yl)-2-hydroxypropyl)-6-(cyclopentylamino)pyrimidine-4-carboxamide] | ≥ 10 µM | 0.5 to 5 µM |  | ≥ 10 µM | 0.5 to 5 µM | ≥ 5 µM | C* (an IC50 ratio of less than 3 fold between the IC50 in the HAP1 MTAP-intact cell line and the HAP1 MTAP-deleted cell line) |  | A (a Ki ratio greater than or equal to 10 fold between the Ki in the presence of SAM and the Ki in the presence of MTA)
Cc1ncoc1COc1ccc2c(c1Cl)CCN(C[C@@H](O)CNC(=O)c1cccc(NC3COC3)c1)C2 [Compound 490, N-[(2S)-3-[5-chloro-6-[(4-methyl-1,3-oxazol-5-yl)methoxy]-1,2,3,4-tetrahydroisoquinolin-2-yl}-2-hydroxypropyl]-3-[(oxetan-3-yl)amino]benzamide] | ≥ 10 µM | 0.5 to 5 µM | ≥ 5 µM | ≥ 10 µM | 0.5 to 5 µM |  | C* (an IC50 ratio of less than 3 fold between the IC50 in the HAP1 MTAP-intact cell line and the HAP1 MTAP-deleted cell line) | A (a Ki ratio greater than or equal to 10 fold between the Ki in the presence of SAM and the Ki in the presence of MTA) | 
O=C(NC[C@H](O)CN1CCc2cc(OCc3cnco3)ccc2C1)c1ccnc(Nc2cccnc2)c1 [Compound 399, (S)—N-(2-hydroxy-3-(6-(oxazol-5-ylmethoxy)-3N-dihydroisoquinolin-2(1H)-yl)propyl)-2-(pyridin-3-ylamino)isonicotinamide] | 1 to 10 µM | 0.5 to 5 µM |  | < 1 µM | 0.05 to 0.5 µM | ≥ 5 µM | B* (an IC50 ratio greater than or equal to 3 fold but lower than 10 fold between the IC50 in the HAP1 MTAP-intact cell line and the HAP1 MTAP-deleted cell line) |  | A (a Ki ratio greater than or equal to 10 fold between the Ki in the presence of SAM and the Ki in the presence of MTA)
O=C(NC[C@H](O)CN1CCc2c(ccc(OCc3cnco3)c2Cl)C1)c1ccnc(NC2CC(C(F)F)C2)c1 (stereo partly drawn) [Compound 317, (S)—N-(3-(5-chloro-6-(oxazol-5-ylmethoxy)-3,4-dihydroisoquinolin-2(1H)-yl)-2-hydroxypropyl)-2-((3-(difluoromethyl)cyclobutyl)amino)isonicotinamide] | ≥ 10 µM | 0.5 to 5 µM |  | ≥ 10 µM | 0.05 to 0.5 µM | ≥ 5 µM | C* (an IC50 ratio of less than 3 fold between the IC50 in the HAP1 MTAP-intact cell line and the HAP1 MTAP-deleted cell line) |  | A (a Ki ratio greater than or equal to 10 fold between the Ki in the presence of SAM and the Ki in the presence of MTA)
O=C(NC[C@H](O)CN1CCc2cc(OCc3cnco3)c(F)cc2C1)c1ccnc(NC2CCC2)c1 [Compound 513, 2-(cyclobutylamino)-N-[(2S)-3-[7-fluoro-6-(oxazol-5-ylmethoxy)-3,4-dihydro-1H-isoquinolin-2-yl]-2-hydroxy-propyl]pyridine-4-carboxamide] | ≥ 10 µM | 0.5 to 5 µM | ≥ 5 µM | 1 to 10 µM | 0.05 to 0.5 µM |  | B* (an IC50 ratio greater than or equal to 3 fold but lower than 10 fold between the IC50 in the HAP1 MTAP-intact cell line and the HAP1 MTAP-deleted cell line) | A (a Ki ratio greater than or equal to 10 fold between the Ki in the presence of SAM and the Ki in the presence of MTA) | 

Continued, in another order:

IC50 (HAP1 MTAP-intact) | IC50 (PRMT5 [1]) | IC50 (PRMT5 [2]) | IC50 (HAP1 MTAP-deleted) | IC50 (PRMT5 [3]) | IC50 (PRMT5 [2]; read-out: No Co-factor IC50) | SMILES | MTAP Intact/Deleted Ratio (HAP1 MTAP-deleted) | SAM/MTA Ratio (PRMT5 [3]; [4]) | SAM/MTA Ratio (PRMT5 [3]; [5])
≥ 10 µM | 0.05 to 0.5 µM | 0.5 to 5 µM | 1 to 10 µM | 0.05 to 0.5 µM |  | CC(=O)N1CCC(Nc2cc(C(=O)NC[C@H](O)CN3CCc4c(ccc(OCc5cnco5)c4C)C3)ccn2)CC1 [Compound 517] | B* (an IC50 ratio greater than or equal to 3 fold but lower than 10 fold between the IC50 in the HAP1 MTAP-intact cell line and the HAP1 MTAP-deleted cell line) | A (a Ki ratio greater than or equal to 10 fold between the Ki in the presence of SAM and the Ki in the presence of MTA) | 
≥ 10 µM | 0.05 to 0.5 µM |  | < 1 µM | 0.05 to 0.5 µM | 0.5 to 5 µM | CC(=O)N1CCC(Nc2cc(C(=O)NC[C@H](O)CN3CCc4cc(OCc5ocnc5C)c(F)cc4C3)ccn2)CC1 [Compound 625] | A* (an IC50 ratio greater than or equal to 10 fold between the IC50 in the HAP1 MTAP-intact cell line and the HAP1 MTAP-deleted cell line) |  | A (a Ki ratio greater than or equal to 10 fold between the Ki in the presence of SAM and the Ki in the presence of MTA)
< 1 µM | 0.05 to 0.5 µM | 0.5 to 5 µM | < 1 µM | 0.05 to 0.5 µM |  | CC(=O)N1CCN(c2cc(C(=O)NC[C@H](O)CN3CCc4cc(OCc5ocnc5C)ccc4C3)cc(NC3CCC3)n2)CC1 [Compound 556, 2-(4-acetylpiperazin-1-yl)-6-(cyclobutylamino)-N-[(2S)-2-hydroxy-3-{6-[(4-methyl-1,3-oxazol-5-yl)methoxy]-1,2,3,4-tetrahydroisoquinolin-2-yl}propyl]pyridine-4-carboxamide] | B* (an IC50 ratio greater than or equal to 3 fold but lower than 10 fold between the IC50 in the HAP1 MTAP-intact cell line and the HAP1 MTAP-deleted cell line) | A (a Ki ratio greater than or equal to 10 fold between the Ki in the presence of SAM and the Ki in the presence of MTA) | 
< 1 µM | 0.05 to 0.5 µM | 0.5 to 5 µM | < 1 µM | 0.05 to 0.5 µM |  | Cc1ncoc1COc1ccc2c(c1)CCN(C[C@@H](O)CNC(=O)c1cc(NC3CCC3)ccn1)C2 [Compound 516, 4-(cyclobutylamino)-N-[(2S)-2-hydroxy-3-(6-[(4-methyl-1,3-oxazol-5-yl)methoxy]-1,2,3,4-tetrahydroisoquinolin-2-yl}propyl]pyridine-2-carboxamide] | C* (an IC50 ratio of less than 3 fold between the IC50 in the HAP1 MTAP-intact cell line and the HAP1 MTAP-deleted cell line) | A (a Ki ratio greater than or equal to 10 fold between the Ki in the presence of SAM and the Ki in the presence of MTA) | 
1 to 10 µM | 0.05 to 0.5 µM |  | 1 to 10 µM | 0.05 to 0.5 µM | 0.5 to 5 µM | O=C(NC[C@H](O)CN1CCc2cc(OCc3cnco3)ccc2C1)c1cc(NC2COC2)nc(N2CCN(C(=O)C3CC3)CC2)n1 [Compound 290, (S)-2-(4-(cyclopropanecarbonyl)piperazin-1-yl)-N-(2-hydroxy-3-(6-(oxazol-5-ylmethoxy)-3,4-dihydroisoquinolin-2(1H)-yl)propyl)-6-(oxetan-3-ylamino)pyrimidine-4-carboxamide] | B* (an IC50 ratio greater than or equal to 3 fold but lower than 10 fold between the IC50 in the HAP1 MTAP-intact cell line and the HAP1 MTAP-deleted cell line) |  | A (a Ki ratio greater than or equal to 10 fold between the Ki in the presence of SAM and the Ki in the presence of MTA)
≥ 10 µM | 0.5 to 5 µM |  | ≥ 10 µM | 0.5 to 5 µM | ≥ 5 µM | Cc1ncoc1COc1ccc2c(c1I)CCN(C[C@@H](O)CNC(=O)c1ccnc(NC3CCC3)c1)C2 [Compound 268, 2-(cyclobutylamino)-N-[(2S)-2-hydroxy-3-[5-iodo-6-[(4-methyloxazol-5-yl)methoxy]-3,4-dihydro-1H-isoquinolin-2-yl]propyl]pyridine-4-carboxamide] | C* (an IC50 ratio of less than 3 fold between the IC50 in the HAP1 MTAP-intact cell line and the HAP1 MTAP-deleted cell line) |  | 
≥ 10 µM | 0.05 to 0.5 µM |  | ≥ 10 µM | 0.05 to 0.5 µM | 0.5 to 5 µM | O=C(NC[C@H](O)CN1CCc2c(ccc(OCc3cnco3)c2Cl)C1)c1ccnc(NC2CCCC2)c1 [Compound 382, (S)—N-(3-(5-chloro-6-(oxazol-5-ylmethoxy)-3,4-dihydroisoquinolin-2(1H)-yl)-2-hydroxypropyl)-2-(cxclopentylamino)isonicotinamide] | C* (an IC50 ratio of less than 3 fold between the IC50 in the HAP1 MTAP-intact cell line and the HAP1 MTAP-deleted cell line) |  | A (a Ki ratio greater than or equal to 10 fold between the Ki in the presence of SAM and the Ki in the presence of MTA)
